The record followed here is patent publication US20070111988A1, “Selective estrogen receptor modulators” (ELI LILLY AND COMPANY, priority 2004, published 2007).

The test system of series [1] is Ishikawa human endometrial tumor cells. The experiment in a line: Ishikawa Cell Proliferation Assay, agonist mode (alkaline phosphatase readout). The series is classed as cell-based. Particulars: for stimulation compared with tamoxifen: compound alone; for Emax: Homo sapiens, Ishikawa, versus the response to tamoxifen, read-out: relative % efficacy. How it is done:
(§1) Ishikawa Cell Proliferation Assay: This assay measures cell proliferation (using an alkaline phosphatase readout) in both an agonist mode in the presence of a compound of the present invention alone, and in an antagonist mode in which the ability of a compound of the present invention to block estradiol stimulation of growth is measured.
(§2) Ishikawa human endometrial tumor cells are maintained in MEM (minimum essential medium, with Earle's salts and L-Glutamine, Gibco BRL, Gaithersburg, Md.), supplemented with 10% fetal bovine serum (FBS) (V/V), (Gibco BRL). One day prior to assay, growth media is changed to assay medium, DMEM/F-12 (3:1) (Dulbecco's Modified Eagle Medium:Nutrient Mixture F-12, 3:1 Mixture, phenol red-free, Gibco BRL) supplemented with 5% dextran coated charcoal stripped fetal bovine serum (DCC-FBS) (Hyclone, Logen, Utah), L-Glutamine (2 mM), MEM sodium pyruvate (1 mM), HEPES (N-[2-hydroxyethyl]piperazine-N′-[2-ethanesulfonic acid] 2 mM) all from Gibco BRL). After an overnight incubation, Ishikawa cells are rinsed with Dulbecco's Phosphate Buffered Saline (1×) (D-PBS) without Ca^+2 and Mg^+2 (Gibco BRL), and trypsinized by a 3 minute incubation with 0.25% Trypsin/EDTA, phenol red-free (Gibco BRL). Cells are resuspended in assay medium and adjusted to 250,000 cells/mL. Approximately 25,000 cells in a 100 ul media are added to flat-bottom 96 wells microculture plates (Costar 3596) and incubated at 37° C. in a 5% CO2 humidified incubator for 24 hours. The next day, serial dilutions of compounds are prepared in assay medium (at 6 times the final concentration in the assay). The assay is run in dual mode, agonist and antagonist modes.
For the agonist mode, plates receive 25 μl/well of assay medium followed by 25 μl/well of a diluted compound of the present invention (at 6× the final concentrations). For the antagonist mode, plates receive 25 μl/well of 6 nM E2 (β-Estradiol, Sigma, St. Louis, Mo.) followed by 25 μl/well of a diluted compound of the present invention (at 6× the final concentrations). After an additional 48-hour incubation at 37° C. in a 5% CO2 humidified incubator, media is aspirated from wells and 100 μl fresh assay medium is added to each microculture. Serial dilutions of compounds are prepared and added to the cells as described above. After an additional 72 hour incubation at 37° C. in a 5% CO2 humidified incubator, the assay is quenched by removing media and rinsing plates twice in Dulbecco's Phosphate Buffered Saline (1×) (D-PBS) (Gibco BRL). The plates are dried for 5 minutes and frozen at −70° C. for at least 1 hour. The plates are then removed from the freezer and allowed to thaw at room temperature. To each well, 100 μl of 1-Step™ PNPP (Pierce Chemical Company, Rockford, Ill.) is added. After a 20-minute incubation, plates are read on a spectophotometer at 405 nm.
(§3) The data is fitted to a linear interpolation to derive EC50 (for agonist mode) or IC50 (for antagonist mode) values. For the antagonist mode, a % efficacy for each compound is calculated versus E2 (1 nM) alone. For the agonist mode, a % efficacy for each compound is calculated versus the response to tamoxifen.

The test system of series [2] is estrogenic stimulation of the uterus in immature female rats. Nature of the series: 3-Day Rat Uterus Antagonist Assay. The series is classed as in vivo. Particulars: 3 days, with E2 0.1 mg/kg; for inhibition of the estrogen-induced response (uterine weight/body weight ratio): 1.0 mg/kg oral; for % antagonism / ED50: oral. The text has this:
3-Day Rat Uterus Antagonist Assay: This model for uterine antagonism utilizes immature (3 week old) female rats that are highly sensitive to estrogenic stimulation of the uterus given that their circulating estrogen levels are prepubertal. The uteri from immature rats are fully responsive to exogenous estrogen, yet are quiescent in the absence of exogenous estrogen. Administration of exogenous estrogen to immature rats produces a reliable elevation of uterine weight, which can be used to study uterine antagonist effects. The rats are treated with both estradiol and 4 different concentrations of a compound of the present invention for 3 days and then uterine wet weights are measured.
Nineteen to twenty-one day old (or 45-50 g) female rats are orally treated with E2 (0.1 mg/kg, a maximal stimulatory estrogenic stimulus for reliably increasing uterine weight) and 10, 1.0, 0.1 and 0.01 mg/kg test compound for 3 days, 6 rats per group. Test compounds are dissolved in 20% β-hydroxycyclodextrin and administered by oral gavage in a volume of 0.2 mL daily (15 min. prior to the ethynyl estradiol gavage). A vehicle control, E2 alone and E2+raloxifene are also done as controls. The animals are fasted overnight following the final dose. On the following morning, the animals are weighed, then euthanized (by carbon dioxide asphyxiation) and the uteri rapidly collected (via a mid-line ventral incision) and weighed.
Uterine weight/body weight ratios (UWR) are calculated for each animal. The percent inhibition of the estrogen-induced response is then calculated by the following formula: percent inhibition=100×(UWRestrogen−UWRtest compound/UWRestrogen−UWRcontrol). ED50 values are derived from a semi-log regression analysis of the linear aspect of the dose response curve. Both the UWR data and the percent inhibition data are statistically analyzed by one way analysis of variance (ANOVA) with post-hoc testing by Fisher's PLSD when indicated by a p≦0.05. Statistical analyses are performed using the Statview® 4.0 software package.

A further series concerns mature F344 female rats. The experiment in a line: 10-Day Rat Hormone (Ovarian Stimulation) Screen. The format is in vivo. The note with it: oral gavage 10 days, serum about 2 hours after the 10th dose, RIA. How it is done:
10-Day Rat Hormone (Ovarian Stimulation) Screen: An initial, first screen for ovarian toxicity is conducted using a 10-day rat hormone study to measure estradiol and luteinizing hormone levels after compound administration. This screen is conducted by administering compound by oral gavage for 10 days to mature (9-10 week old) F344 female rats. Trunk blood is collected by rapid decapitation for evaluation of LH and estradiol levels approximately 2 hours after the 10th dose. Serum, obtained by centrifugation, is removed and stored frozen below −60° C. until assayed. Serum levels of LH and estradiol are measured using radioimmunoassay (RIA) methods.
Rat LH primary antibody and reference preparations (rat LH:RP-3) are obtained from Dr. A. F. Parlow, Director, Pituitary Hormones and Antisera Center, Harbor-UCLA Medical Center, Torrance, Calif. The LH assay upper limits of detection are 30 ng/mL and the lower limits of detection are 0.1 ng/mL for the 100 μl samples.
E2 Clinical Assays. DiaSorin s.r.l., Saluggia (Vercelli), Italy. The upper limit of detection is 1000 pg/mL and the lower limit of detection is 5 pg/mL.

Series [3] has as its system uterus of mature, ovariectomized rats. Nature of the series: 4-Day OVX Rat Uterine Agonist Assay. The format is in vivo. The note with it: 4 days of treatment, 3 doses. How it is done: Seventy-five day old rats are ovariectomized and treatment is started 14 days later when circulating estradiol levels have reached minimal levels. After 4 days of treatment with 3 doses of a compound of the present invention, (6 rats per group) body weight, uterine wet weight and uterine eosinophil peroxidase (EPO) activity are measured. Cholesterol levels are also measured to compare relative ability to lower cholesterol with other SERMs. If there is any question of uterine stimulation, histological examination will determine epithelial cell height.

For series [4], the system named is Ishikawa human endometrial tumor cells. The experiment in a line: Ishikawa Cell Proliferation Assay, antagonist mode (block of estradiol stimulation). The series is classed as cell-based. The note with it: for IC50: 1 nM E2; for Emax: versus E2 (1 nM) alone, read-out: % efficacy. How it is done:
as §1, §2
For the agonist mode, plates receive 25 μl/well of assay medium followed by 25 μl/well of a diluted compound of the present invention (at 6× the final concentrations). For the antagonist mode, plates receive 25 μl/well of 6 nM E2 (β-Estradiol, Sigma, St. Louis, Mo.) followed by 25 μl/well of a diluted compound of the present invention (at 6× the final concentrations). After an additional 48-hour incubation at 37° C. in a 5% CO2 humidified incubator, media is aspirated from wells and 100 μl fresh assay medium is added to each microculture. Serial dilutions of compounds are prepared and added to the cells as described above. […] After a 20-minute incubation, plates are read on a spectophotometer at 405 nm.
as §3

The structures appear in SMILES notation.

As for `OCc1ccc2c(c1)OC(c1ccc(OCCN3CCCCC3)cc1)c1c-2ccc2cc(O)ccc12` (racemic) [Example 37, 8-Hydroxymethyl-5-[4-(2-piperidin-1-yl-ethoxy)-phenyl]-5H-6-oxa-chrysen-2-ol], in series [1], the “stimulation compared with tamoxifen” value is “less stimulatory than tamoxifen”. Besides, in series [2], the “inhibition of the estrogen-induced response (uterine weight/body weight ratio)” value (“inhibition … (uterine weight/body weight ratio)” for short) is listed as “inhibit the estrogen-induced response”, the “% antagonism” value turned out to be 89% and the ED50 was found to be 0.06 mpk. In addition, in the series with mature F344 female rats, the “circulating LH levels” value is listed as “did not significantly elevate” and the circulating estradiol levels result was “did not significantly elevate”.

As for `Cl.NC(=O)c1cccc(-c2ccc3cc(O)ccc3c2Oc2ccc(OCCN3CCCCC3)cc2)c1` [Example 1, 3-{6-Hydroxy-1-[4-(2-piperidin-1-yl-ethoxy)-phenoxy]-naphthalen-2-yl}-benzamide hydrochloride], the “stimulation compared with tamoxifen” value in series [1] is on record as “less stimulatory than tamoxifen”.

With `COC(=O)c1cccc(-c2ccc3cc(O)ccc3c2Oc2ccc(OCCN3CCCCC3)cc2)c1.Cl` [Example 2, 3-{6-Hydroxy-1-[4-(2-piperidin-1-yl-ethoxy)-phenoxy]-naphthalen-2-yl}-benzoic acid methyl ester hydrochloride], the “stimulation compared with tamoxifen” value in series [1] was “less stimulatory than tamoxifen”.

Consider `O=C(O)C(F)(F)F.O=C(O)c1cccc(-c2ccc3cc(O)ccc3c2Oc2ccc(OCCN3CCCCC3)cc2)c1` [Example 3, 3-{6-Hydroxy-1-[4-(2-piperidin-1-yl-ethoxy)-phenoxy]-naphthalen-2-yl}-benzoic acid trifluoroacetate], for which the “stimulation compared with tamoxifen” value in series [1] is “less stimulatory than tamoxifen”.

In the case of `COC(=O)c1ccc(-c2ccc3cc(O)ccc3c2Oc2ccc(OCCN3CCCCC3)cc2)cc1.Cl` [Example 5, 4-{6-Hydroxy-1-[4-(2-piperidin-1-yl-ethoxy)-phenoxy]-naphthalen-2-yl}-benzoic acid methyl ester hydrochloride], the “stimulation compared with tamoxifen” value in series [1] was “less stimulatory than tamoxifen”. For the same molecule, in series [2], the “inhibition … (uterine weight/body weight ratio)” value is “inhibit the estrogen-induced response”. In the series with mature F344 female rats, the “circulating LH levels” value is reported as “did not significantly elevate” and the circulating estradiol levels entry was “did not significantly elevate”. In addition, the “uterine eosinophil peroxidase (EPO) activity” value in series [3] is listed as “did not cause any dose-related statistically significant increase in EPO activity”.

As for `Cl.O=C(O)c1ccc(-c2ccc3cc(O)ccc3c2Oc2ccc(OCCN3CCCCC3)cc2)cc1` [Example 6, 4-{6-Hydroxy-1-[4-(2-piperidin-1-yl-ethoxy)-phenoxy]-naphthalen-2-yl}-benzoic acid hydrochloride], the “stimulation compared with tamoxifen” value in series [1] is “less stimulatory than tamoxifen”.

In general, IC50 refers to the point on the concentration scale where inhibition reaches its midpoint. Regarding `CN(C)C(=O)c1cccc(-c2ccc3cc(O)ccc3c2Oc2ccc(OCCN3CCCCC3)cc2)c1.Cl` [Example 8, 3-{6-Hydroxy-1-[4-(2-piperidin-1-yl-ethoxy)-phenoxy]-naphthalen-2-yl}-N,N-dimethylbenzamide, hydrochloride salt], in series [1], the Emax was found to be 15% and the “stimulation compared with tamoxifen” value is given as “less stimulatory than tamoxifen”. In addition, in series [2], the “inhibition … (uterine weight/body weight ratio)” value was “inhibit the estrogen-induced response”. In series [4], it took 0.009 µM to reach half-maximal inhibition (IC50) and the Emax was determined as 95%.

With `Cl.O=C1NCc2cc(-c3ccc4cc(O)ccc4c3Oc3ccc(OCCN4CCCCC4)cc3)ccc21` [Example 11, 5-{6-Hydroxy-1-[4-(2-piperidin-1-yl-ethoxy)-phenoxy]-naphthalen-2-yl}-2,3-dihydro-isoindol-1-one Hydrochloride], the “stimulation compared with tamoxifen” value in series [1] is “less stimulatory than tamoxifen”. Moreover, in series [2], the “inhibition … (uterine weight/body weight ratio)” value is “inhibit the estrogen-induced response”, the “% antagonism” value is reported as 79% and the ED50 was determined as 0.3 mpk.

Take `O=C(O)C(F)(F)F.O=C(O)c1cccc2c1OC(c1ccc(OCCN3CCCCC3)cc1)c1c-2ccc2cc(O)ccc12` (centres unmarked) [Example 35, 2-Hydroxy-5-[4-(2-piperidin-1-yl-ethoxy)-phenyl]-5H-6-oxa-chrysene-7-carboxylic acid trifluoroacetate]: in series [1], the Emax was determined as 25% and the “stimulation compared with tamoxifen” value is given as “less stimulatory than tamoxifen”. In series [4], the IC50 was 0.036 µM and the Emax stood at 92%.

For `COc1ccc2c3c(ccc2c1)-c1ccc(CO)cc1OC3c1ccc(OCCN2CCCCC2)cc1` (centres unmarked) [Example 36, {2-Methoxy-5-[4-(2-piperidin-1-yl-ethoxy)-phenyl]-5H-6-oxa-chrysen-8-yl}-methanol], in series [1], the “stimulation compared with tamoxifen” value is recorded as “less stimulatory than tamoxifen”.

With `OCc1ccc2c(c1)OC(c1ccc(OCCN3CCCCC3)cc1)c1c-2ccc2cc(O)ccc12` (centres unmarked) [Example 39, 8-Hydroxymethyl-5-[4-(2-piperidin-1-yl-ethoxy)-phenyl]-5H-6-oxa-chrysen-2-ol], the “stimulation compared with tamoxifen” value in series [1] is listed as “less stimulatory than tamoxifen”.

For `Cl.OCc1ccc(-c2ccc3cc(O)ccc3c2Oc2ccc(OCCN3CCCCC3)cc2)cc1` [Example 41, 6-(4-Hydroxymethyl-phenyl)-5-[4-(2-piperidin-1-yl-ethoxy)-phenoxy]-naphthalen-2-ol, hydrochloride], the “stimulation compared with tamoxifen” value in series [1] is listed as “less stimulatory than tamoxifen”.

`COc1ccc2c(Oc3ccc(OCCN4CCCCC4)cc3)c(-c3ccc(C(C)(C)O)cc3)ccc2c1` [Example 44]: the “stimulation compared with tamoxifen” value in series [1] is reported as “less stimulatory than tamoxifen”.
